Reference: patent US8791143B2, “Anthranilic diamide derivatives having cyclic side-chains” (priority 2010, dated 2014)
Where two headings read alike, the source gives them in different places.

Key:
[1] = log P by HPLC on reversed-phase columns (EEC Directive 79/831 Annex V.A8); type: physicochemical
[2] = test system: larvae of the mustard beetle (Phaedon cochleariae); test: Phaedon test (PHAECO spray treatment); conditions: Phaedon cochleariae, 168 h, read-out: activity in % (beetle larvae killed)
[3] = test system: caterpillars of the armyworm (Spodoptera frugiperda); test: Spodoptera frugiperda test (SPODFR spray treatment); type: in vivo; conditions: Spodoptera frugiperda, 168 h, read-out: activity in % (caterpillars killed)
[4] = reversed-phase C18 HPLC column, pH 2.7, HPLC reversed-phase C18, acidic range pH 2.7 (HCOOH), only or first value of the cell, read-out: log P
[5] = application rate 100 g/ha, after 7 days

SMILES	chromatographic logP [1, 4]	pest or weed control at 100 g/ha [2] [%]	pest or weed control at 100 g/ha [3, 5] [%]	chromatographic logP ([1]; pH 2.7, log P)	pest or weed control at 100 g/ha [3] [%]
Cc1cc(Cl)cc(C(=O)NC(C)c2ccc(OC(F)(F)F)cc2)c1NC(=O)c1cc(Cn2nnc(C(F)(F)F)n2)nn1-c1ncccc1Cl (stereo not drawn) [Example 117]	4.52	100	100	–	–
Cc1ccccc1CNC(=O)c1cc(Cl)cc(C)c1NC(=O)c1cc(Cn2nnc(C(F)(F)F)n2)nn1-c1ncccc1Cl [Example 119]	–	100	–	4.03	100
Cc1cc(Cl)cc(C(=O)NC(C)c2ccc(F)cc2)c1NC(=O)c1cc(Cn2nnc(C(F)(F)F)n2)nn1-c1ncccc1Cl (stereo not drawn) [Example 122]	–	100	–	4	100
Cc1cc(Cl)cc(C(=O)NC(C)c2ccccc2C(F)(F)F)c1NC(=O)c1cc(Cn2nnc(C(F)(F)F)n2)nn1-c1ncccc1Cl (stereo not drawn) [Example 123]	4.35	100	100	–	–
Cc1cc(Cl)cc(C(=O)NC(C)c2cccc(Cl)c2Cl)c1NC(=O)c1cc(Cn2nnc(C(F)(F)F)n2)nn1-c1ncccc1Cl (stereo not drawn) [Example 124]	4.57	100	100	–	–
Cc1cc(Cl)cc(C(=O)N[C@H](C)c2ccc([N+](=O)[O-])cc2)c1NC(=O)c1cc(Cn2nnc(C(F)(F)F)n2)nn1-c1ncccc1Cl [Example 128]	3.85	100	100	–	–
Cc1cc(Cl)cc(C(=O)NCc2ccccc2)c1NC(=O)c1cc(Cn2nc(C(F)(F)F)c(C(F)(F)F)n2)nn1-c1ncccc1Cl [Example 134]	4.52	100	100	–	–
Cc1cc(C#N)cc(C(=O)NCc2ccc(Cl)c(Cl)c2)c1NC(=O)c1cc(Cn2nnc(C(F)(F)F)n2)nn1-c1ccccc1Cl [Example 137]	3.99	100	100	–	–
Cc1cc(Cl)cc(C(=O)NC(C)c2cccc(F)c2)c1NC(=O)c1cc(Cn2nnc(C(F)(F)F)n2)nn1-c1ncccc1Cl (stereo not drawn) [Example 143]	–	100	–	4	100
Cc1cc(I)cc(C(=O)NCc2ccccc2OC(F)(F)F)c1NC(=O)c1cc(Cn2nnc(C(F)(F)C(F)(F)F)n2)nn1-c1ncccc1Cl [Example 146]	4.84	100	100	–	–
Cc1cc(I)cc(C(=O)NCc2ccc(OC(F)(F)F)cc2)c1NC(=O)c1cc(Cn2nnc(C(F)(F)C(F)(F)F)n2)nn1-c1ncccc1Cl [Example 148]	4.85	100	100	–	–
Cc1cc(F)cc(C(=O)NCc2ccc(OC(F)(F)F)cc2)c1NC(=O)c1cc(Cn2nnc(C(F)(F)F)n2)nn1-c1ncccc1Cl [Example 155]	3.92	100	100	–	–
Cc1cc(I)cc(C(=O)NCc2cccc(OC(F)(F)F)c2)c1NC(=O)c1cc(Cn2nnc(C(F)(F)F)n2)nn1-c1ncccc1Cl [Example 156]	4.47	100	100	–	–
Cc1cc(Cl)cc(C(=O)NCc2ccccc2OC(F)F)c1NC(=O)c1cc(Cn2nnc(C(F)(F)F)n2)nn1-c1ncccc1Cl [Example 158]	4	100	100	–	–
Cc1cc(C#N)cc(C(=O)NCc2cccc(OC(F)(F)F)c2)c1NC(=O)c1cc(Cn2nnc(C(F)F)n2)nn1-c1ncccc1Cl [Example 163]	3.42	100	100	–	–
Cc1cc(F)cc(C(=O)NCc2ccc(OC(F)F)cc2)c1NC(=O)c1cc(Cn2nnc(C(F)(F)F)n2)nn1-c1ncccc1Cl [Example 170]	3.55	100	100	–	–

More lines, main results first:

chromatographic logP [1, 4]	SMILES	pest or weed control at 100 g/ha [2] [%]	pest or weed control at 100 g/ha [3, 5] [%]	chromatographic logP ([1]; pH 2.7, log P)	pest or weed control at 100 g/ha [3] [%]
4.21	Cc1cc(Cl)cc(C(=O)NCc2ccccc2C(F)(F)F)c1NC(=O)c1cc(Cn2nnc(C(F)(F)F)n2)nn1-c1ncccc1Cl [Example 118]	100	100	–	–
4.42	Cc1cc(Cl)cc(C(=O)NC(C)c2cccc(C(F)(F)F)c2)c1NC(=O)c1cc(Cn2nnc(C(F)(F)F)n2)nn1-c1ncccc1Cl (stereo not drawn) [Example 120]	100	100	–	–
4.32	Cc1cc(Cl)cc(C(=O)NC(C)c2ccc(C(F)(F)F)cc2)c1NC(=O)c1cc(Cn2nnc(C(F)(F)F)n2)nn1-c1ncccc1Cl (stereo not drawn) [Example 121]	100	100	–	–
4.42	Cc1cc(Cl)cc(C(=O)NC(C)c2ccc(Cl)cc2F)c1NC(=O)c1cc(Cn2nnc(C(F)(F)F)n2)nn1-c1ncccc1Cl (stereo not drawn) [Example 125]	100	100	–	–
4.46	Cc1cc(Cl)cc(C(=O)NCc2ccc(OC(F)(F)F)cc2)c1NC(=O)c1cc(Cn2nnc(C(F)(F)F)n2)nn1-c1ncccc1Cl [Example 126]	100	100	–	–
3.68	COC(=O)c1ccc(CNC(=O)c2cc(Cl)cc(C)c2NC(=O)c2cc(Cn3nnc(C(F)(F)F)n3)nn2-c2ncccc2Cl)cc1 [Example 127]	100	100	–	–
3.86	Cc1cc(Cl)cc(C(=O)N[C@@H](C)c2ccc([N+](=O)[O-])cc2)c1NC(=O)c1cc(Cn2nnc(C(F)(F)F)n2)nn1-c1ncccc1Cl [Example 129]	100	100	–	–
4.15	Cc1cc(C#N)cc(C(=O)NCc2ccccc2)c1NC(=O)c1cc(Cn2nc(C(F)(F)F)c(C(F)(F)F)n2)nn1-c1ncccc1Cl [Example 136]	100	100	–	–
4.67	Cc1cc(Cl)cc(C(=O)NC(C)c2ccc(Cl)cc2Cl)c1NC(=O)c1cc(Cn2nnc(C(F)(F)F)n2)nn1-c1ncccc1Cl (stereo not drawn) [Example 141]	100	100	–	–
4.58	Cc1cc(Cl)cc(C(=O)NC(C)c2ccc(Cl)c(Cl)c2)c1NC(=O)c1cc(Cn2nnc(C(F)(F)F)n2)nn1-c1ncccc1Cl (stereo not drawn) [Example 142]	100	100	–	–
4.58	Cc1cc(Cl)cc(C(=O)NC(C)c2cc(Cl)ccc2Cl)c1NC(=O)c1cc(Cn2nnc(C(F)(F)F)n2)nn1-c1ncccc1Cl (stereo not drawn) [Example 144]	100	100	–	–
4.35	Cc1cc(I)cc(C(=O)NCc2ccc(OC(F)F)cc2)c1NC(=O)c1cc(Cn2nnc(C(F)(F)C(F)(F)F)n2)nn1-c1ncccc1Cl [Example 149]	100	100	–	–
3.92	Cc1cc(F)cc(C(=O)NCc2ccccc2OC(F)(F)F)c1NC(=O)c1cc(Cn2nnc(C(F)(F)F)n2)nn1-c1ncccc1Cl [Example 154]	100	100	–	–
4.45	Cc1cc(I)cc(C(=O)NCc2ccccc2OC(F)F)c1NC(=O)c1cc(Cn2nnc(C(F)(F)C(F)(F)F)n2)nn1-c1ncccc1Cl [Example 157]	100	100	–	–
3.95	Cc1cc(Cl)cc(C(=O)NCc2cccc(OC(F)F)c2)c1NC(=O)c1cc(Cn2nnc(C(F)(F)F)n2)nn1-c1ncccc1Cl [Example 159]	100	100	–	–
3.79	Cc1cc(Cl)cc(C(=O)NCc2cccc(OC(F)(F)F)c2)c1NC(=O)c1cc(Cn2nnc(C(F)F)n2)nn1-c1ncccc1Cl [Example 160]	100	100	–	–
3.42	Cc1cc(Cl)cc(C(=O)NCc2ccc(OC(F)F)cc2)c1NC(=O)c1cc(Cn2nnc(C(F)F)n2)nn1-c1ncccc1Cl [Example 161]	100	100	–	–
3.42	Cc1cc(C#N)cc(C(=O)NCc2ccc(OC(F)(F)F)cc2)c1NC(=O)c1cc(Cn2nnc(C(F)F)n2)nn1-c1ncccc1Cl [Example 164]	100	100	–	–
3.04	Cc1cc(C#N)cc(C(=O)NCc2ccc(OC(F)F)cc2)c1NC(=O)c1cc(Cn2nnc(C(F)F)n2)nn1-c1ncccc1Cl [Example 165]	100	100	–	–
3.91	Cc1cc(C#N)cc(C(=O)NCc2cccc(OC(F)(F)F)c2)c1NC(=O)c1cc(Cn2nnc(C(F)(F)F)n2)nn1-c1ncccc1Cl [Example 166]	100	100	–	–
3.9	Cc1cc(C#N)cc(C(=O)NCc2ccc(OC(F)(F)F)cc2)c1NC(=O)c1cc(Cn2nnc(C(F)(F)F)n2)nn1-c1ncccc1Cl [Example 167]	100	100	–	–
3.49	Cc1cc(C#N)cc(C(=O)NCc2ccc(OC(F)F)cc2)c1NC(=O)c1cc(Cn2nnc(C(F)(F)F)n2)nn1-c1ncccc1Cl [Example 168]	100	100	–	–
3.95	Cc1cc(F)cc(C(=O)NCc2cccc(OC(F)(F)F)c2)c1NC(=O)c1cc(Cn2nnc(C(F)(F)F)n2)nn1-c1ncccc1Cl [Example 169]	100	100	–	–
